Results reported in US5721234A, “Glutamate receptor antagonists: fused cycloalkylouinoxalinediones” (Warner-Lambert Company, priority 1995, dated 1998).
Structures can show the parent of a compound that is named as a salt.

Experiments:
AMPA receptors = assay: AMPA receptor binding affinity (Honore et al.)
[1] = biological target: kainate site (non-NMDA receptor); assay: Kainate site (non-NMDA receptor) binding affinity (London and Coyle)
[2] = biological target: T1, glycine site of the NMDA receptor (Rattus norvegicus, UniProt P35439); assay: Glycine site of the NMDA receptor binding affinity (Jones et al.)
T1 construct: from tissue

[3] = system: AMPA-induced neuronal damage in primary cortical neuronal cultures; assay: AMPA-induced neuronal damage in primary cortical neuronal cultures, LDH release; assay type: cell-based; conditions: long-term exposure to 100 μM AMPA
Protocol: To functionally measure AMPA antagonist activity, the effects of the agent on AMPA-induced neuronal damage in primary cortical neuronal cultures was examined using techniques similar to those outlined by Koh, J.-Y. et al., J. Neurosci, 1990; 10:693. The neuronal damage produced by long-term exposure to 100 μM AMPA was measured by the release of the cytosolic enzyme lactate dehydrogenase (LDH).
Selected compounds of the present invention were tested by one or more of the above-described assays. The IC50 values set forth in Tables 1 and 2 are a measure of the concentration (μM) of the test substance which inhibits 50% of an induced release from the tested receptors.

[4] = Table 2, cyclopentyl-fused analogs
[5] = Table 1, cyclohexyl-fused analogs

SMILES	IC50 (AMPA receptors; [4])	IC50 [1, 4]	IC50 [2, 4]	IC50 [3, 4]	IC50 (AMPA receptors; [5])	IC50 [1, 5]	IC50 [2, 5]	IC50 [3, 5]
O=C(NC1Cc2c([N+](=O)[O-])cc3[nH]c(=O)c(=O)[nH]c3c2C1)c1ccoc1 (centres unmarked) [Example 59, Furan-3-carboxylic acid (6-nitro-2,3-dioxo-2,3,4,7,8,9-hexahydro-1H-cyclopenta[f]quinoxalin-8-yl)-amide]	0.14 µM	0.38 µM	> 1 µM	14 µM	–	–	–	–
CC(=O)NC1CCc2c([N+](=O)[O-])cc3[nH]c(=O)c(=O)[nH]c3c2C1 (centres unmarked) [Example 17, N-(6-nitro-2,3-dioxo-1,2,3,4,7,8,9,10-octahydro-benzo[f]quinoxalin-9-yl)-acetamide]	–	–	–	–	0.56 µM	2.2 µM	0.62 µM	> 30 µM
O=C(NC1CCc2c([N+](=O)[O-])cc3[nH]c(=O)c(=O)[nH]c3c2C1)C1CCCCC1 (centres unmarked) [Example 37, N-(6-nitro-2,3-dioxo-1,2,3,4,7,8,9,10-octahydrobenzo[f]quinoxalin9-yl)cyclohexylamide]	–	–	–	–	–	–	0.5 µM	28 µM
O=C(NC1Cc2c([N+](=O)[O-])cc3[nH]c(=O)c(=O)[nH]c3c2C1)c1cccnc1 (centres unmarked) [Example 61, N-(6-Nitro-2,3-dioxo-2,3,4,7,8,9-hexahydro-1H-cyclopenta[f]quinoxalin-8-yl)-nicotinamide]	0.2 µM	1.03 µM	> 1 µM	28 µM	–	–	–	–
O=C(NC1CCc2c([N+](=O)[O-])cc3[nH]c(=O)c(=O)[nH]c3c2C1)c1ccccc1 (centres unmarked) [Example 36, N-(6-nitro-2,3-dioxo-1,2,3,4,7,8,9,10-octahydrobenzo[f]quinoxalin-9-yl)-benzamide]	–	–	–	–	0.42 µM	0.9 µM	0.09 µM	30 µM
O=C(NC1Cc2c([N+](=O)[O-])cc3[nH]c(=O)c(=O)[nH]c3c2C1)c1ccccc1 (centres unmarked) [Example 39, N-(6-nitro-2,3-dioxo-4,7,8,9-tetrahydro-1H-cyclopenta[f]quinoxalin-8-yl)-benzamide]	0.11 µM	0.48 µM	0.4 µM	18 µM	–	–	–	–
O=C(NC1Cc2c([N+](=O)[O-])cc3[nH]c(=O)c(=O)[nH]c3c2C1)C1CCNCC1 (centres unmarked) [Example 35, 4-(6-nitro-2,3-dioxo-2,3,4,7,8,9-hexahydro-1H-cyclopenta[f]quinoxalin-8-ylcarbamoyl)piperidine hydrochloride]	0.12 µM	0.28 µM	< 1 µM	–	–	–	–	–
NC1CCc2c([N+](=O)[O-])cc3[nH]c(=O)c(=O)[nH]c3c2C1 (centres unmarked) [Example 15, 9-amino-6-nitro-1,4,7,8,9,10-hexahydro-benzo[f]quinoxaline-2,3-dione]	–	–	–	–	0.7 µM	2.8 µM	1.8 µM	20 µM
O=C(NC1Cc2c([N+](=O)[O-])cc3[nH]c(=O)c(=O)[nH]c3c2C1)C1(O)OC(O)C(O)C1O (centres unmarked) [Example 63, 2,3,4,5-Tetrahydroxy-tetrahydro-furan-2-carboxylic acid (6-nitro-2,3-dioxo-2,3,4,7,8,9-hexahydro-1H-cyclopenta[f]quinoxalin-8-yl)-amide]	0.58 µM	1.1 µM	> 1 µM	> 30 µM	–	–	–	–
O=C(NC1Cc2c([N+](=O)[O-])cc3[nH]c(=O)c(=O)[nH]c3c2C1)c1ccccn1 (centres unmarked) [Example 62, Pyridine-2-carboxylic acid (6-nitro-2,3-dioxo-2,3,4,7,8,9-hexahydro-1H-cyclopenta[f]quinoxalin-8-yl)-amide]	0.56 µM	1.9 µM	> 1 µM	–	–	–	–	–
CNC1CCc2c([N+](=O)[O-])cc3[nH]c(=O)c(=O)[nH]c3c2C1 (centres unmarked) [Example 52, 9-Methylamino-6-nitro-1,4,7,8,9,10-hexahydrobenzo[f]quinoxaline-2,3-dione]	–	–	–	–	0.79 µM	2.8 µM	> 1 µM	–
O=C(NC1Cc2c([N+](=O)[O-])cc3[nH]c(=O)c(=O)[nH]c3c2C1)c1ccsc1 (centres unmarked) [Example 60, Thiophene-3-carboxylic acid (6-nitro-2,3-dioxo-2,3,4,7,8,9-hexahydro-1H-cyclopenta[f]quinoxalin-8-yl)amide]	0.1 µM	0.36 µM	0.4 µM	14 µM	–	–	–	–
O=C(NC1CCc2c([N+](=O)[O-])cc3[nH]c(=O)c(=O)[nH]c3c2C1)C1CCNCC1 (centres unmarked) [Example 40, 4-(6-nitro-2,3-dioxo-1,2,3,4,7,8,9,10-octahydrobenzo[f]quinoxaline-9-ylcarbamoyl)-piperidine hydrochloride]	–	–	–	–	0.27 µM	0.82 µM	0.28 µM	25 µM
